Results reported in US20170197935A1, “INHIBITORS OF DNA GYRASE FOR THE TREATMENT OF BACTERIAL INFECTIONS” (Vitas Pharma Research Private Limited, priority 2012, published 2017).
In brackets after ≈: the same amount, converted by molar mass. Like-named read-outs stand apart in the source and are kept apart here.

Experiments:
E. coli U1306 = assay: MIC against FQ resistant clinical strain E. coli U1306; assay type: cell-based; details: Escherichia coli, fluoroquinolone resistant clinical strain, read-out: MIC against FQ resistant strains, E. coli U1306
Description: (§1) The compounds were tested by the microbroth dilution method (National committee for Clinical Laboratory Standards, 2011, M07-08) and the Minimum Inhibitory Concentration (MIC) was determined.

E. coli U5690 = assay: MIC against FQ resistant clinical strain E. coli U5690; assay type: cell-based; details: Escherichia coli, fluoroquinolone resistant clinical strain, read-out: MIC against FQ resistant strains, E. coli U5690
Description: as §1

[1] = test system: Moraxella catarrhalis (ATCC 8176); assay: MIC by microbroth dilution, Moraxella catarrhalis ATCC 8176; assay type: cell-based; details: ATCC8176
Description: (§2) Shown below are the microbiological activities of representative compounds of Formula I of the invention. The compounds were tested by the microbroth dilution method (National committee for Clinical Laboratory Standards, 2011, […]-08) and the Minimum Inhibitory Concentration (MIC) was determined.

E. coli E1851 = assay: MIC against FQ resistant clinical strain E. coli E1851; assay type: cell-based; details: Escherichia coli, fluoroquinolone resistant clinical strain, read-out: MIC against FQ resistant strains, E. coli E1851
Description: as §1

MRSA E9749 = assay: MIC against FQ resistant clinical strain MRSA E9749; assay type: cell-based; details: Staphylococcus aureus, fluoroquinolone resistant clinical strain, read-out: MIC against FQ resistant strains, MRSA E9749
Description: (§3) Shown below are the microbiological activities of representative compounds of Formula I of the invention. The compounds were tested by the microbroth dilution method (National committee for Clinical Laboratory Standards, 2011, M07-08) and the Minimum Inhibitory Concentration (MIC) was determined.
(§4) To test if compounds are able to overcome fluoroquinolone resistance, we have determined the MICS against Fluoroquinolone (FQ) resistant clinical strains of MRSA and E. coli.

[2] = test system: Staphylococcus aureus (ATCC 29213); assay: MIC by microbroth dilution, Staphylococcus aureus ATCC 29213; assay type: cell-based; details: ATCC29213
Description: as §2

[3] = test system: Streptococcus pneumoniae (ATCC 6301); assay: MIC by microbroth dilution, Streptococcus pneumoniae ATCC 6301; assay type: cell-based; details: ATCC6301
Description: as §2

[4] = test system: Enterococcus faecalis (ATCC 29212); assay: MIC by microbroth dilution, Enterococcus faecalis ATCC 29212; assay type: cell-based; details: ATCC29212
Description: as §2

E. coli Gyrase = target: T1, E. coli Gyrase (Escherichia coli, UniProt P0AES4+P0AES6); assay: in vitro Gyrase supercoiling assay (Inspiralis kit); assay type: biochemical; details: 1 hour at 37° C., read-out: % inhibition of DNA supercoiling activity; for inhibition at 0.1 µM: 0.1 μM compound; for inhibition at 1 µM: 1 μM compound
T1 construct: purchased Inspiralis
Description: To test for target specificity, the activity of compounds was evaluated in an in vitro Gyrase assay using recombinant Gyrase protein as per the instructions of the assay kit (Inspiralis). The assay measures the ability of E. coli Gyrase to convert relaxed plasmid DNA into the supercoiled form. The enzyme is incubated with the substrate (relaxed DNA) in the presence and absence of compounds for 1 hour at 37° C. and the DNA is run on a gel at low voltage for several hours. The gel is then stained with Ethidium bromide and DNA in the different forms is quantified using DNA imaging and quantification software (Image Lab). The activity of the enzyme is proportional to the amount of supercoiled form detected.

E. coli (ATCC 25922) = assay: MIC by microbroth dilution, E. coli ATCC 25922; assay type: cell-based; details: Escherichia coli
Outline: (§5)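 Serial dilutions of each compound in broth against the bacterial strain, run per NCCLS M07-08; MIC determined.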

[5] = test system: Methicillin resistant Staphylococcus aureus (ATCC 33591); assay: MIC by microbroth dilution, MRSA ATCC 33591; assay type: cell-based
Outline: as §5

MRSA E9823 = assay: MIC against FQ resistant clinical strain MRSA E9823; assay type: cell-based; details: Staphylococcus aureus, fluoroquinolone resistant clinical strain, read-out: MIC against FQ resistant strains, MRSA E9823
Description: as §3, §4

E. coli 86 = assay: MIC against FQ resistant clinical strain E. coli 86; assay type: cell-based; details: Escherichia coli, fluoroquinolone resistant clinical strain, read-out: MIC against FQ resistant strains, E. coli 86
Description: as §1

[6] = test system: K. pneumoniae (ATCC 700603); assay: MIC by microbroth dilution, K. pneumoniae ATCC 700603; assay type: cell-based; details: Klebsiella pneumoniae, ATCC700603, Formula I compounds
Description: as §3
(§6) Analysis of microbiological activity of compounds shown below are the microbiological activities of representative compounds of Formula II of the invention. The compounds were tested by the microbroth dilution method as per the reference in Example 1.

hERG [7] = target: T2, hERG (Homo sapiens, UniProt Q12809); assay: biochemical
Description: To test the ability of the VT-03 compounds to bind the hERG channel, membranes expressing the hERG channel were incubated with radiolabeled Astemizole and displacement of the labeled ligand in the presence of compounds was measured.
To test the ability of the VT-03 compounds (of Formula II) to bind the hERG channel, membranes expressing the hERG channel were incubated with radiolabeled Astemizole and displacement of the labeled ligand in the presence of compounds was measured.

[8] = test system: S. aureus (MRSA ATCC 33591); assay: Systemic infection model in mice against S. aureus (MRSA ATCC 33591); assay type: in vivo; details: 10 mg/kg i.v. one hour after infection and again 4 hours later, 15× lethal dose MRSA ATCC33591 intraperitoneally
Description: In order to evaluate the in vivo efficacy of the scaffold, we tested representative compounds for activity in the systemic infection model in mice (Antimicrobial Agents and Chemotherapy, 47, 2507-2512, 2003). In this model, a 15× medial lethal dose of the bacteria (MRSA ATCC33591) is administered to mice intraperiotoneally. An hour later, the compound is administered i.v. and again 4 hours later. VT-03-00061, was efficacious with a 50% survival at a dose of 10 mg/kg in this model.

MRSA 33591 = assay: Mutation prevention concentration against MRSA 33591; assay type: cell-based
Description: (§7) The mutation prevention concentration or the concentration above which mutants are unlikely to be selected, was determined based on published protocols (Antimicrobial Agents and Chemotherapy, 45, 433-438, 2001).

[9] = Single dose pharmacokinetics in male Swiss albino mice; assay type: in vivo
Description: (§8) Compounds were dosed to male Swiss albino mice to determine the pharmacokinetic profiles.
as §8

Acinetobacter BAA747 = assay: MIC by microbroth dilution, Acinetobacter BAA747; assay type: cell-based; details: Formula II compounds, read-out: Minimum Inhibitory Concentration (MIC) Acinetobacter BAA747
Description: as §3, §6

[10] = target: T3, ciprofloxacin resistant recombinant Gyrase protein (with mutation S83L) (Escherichia coli, UniProt P0AES4+P0AES6, S83L); assay: Gyrase supercoiling assay with ciprofloxacin resistant Gyrase (S83L); assay type: biochemical; details: read-out: Target specificity: % inhibition of supercoiling activity
T3 construct: purchased Inspiralis
Description: The enzyme is incubated with the substrate (relaxed DNA) in the presence and absence of compounds for 1 hour at 37° C. and the DNA is run on a gel at low voltage for several hours. The amount of supercoiled DNA is quantified using DNA imaging and quantification software (Image Lab). The activity of the enzyme is proportional to the amount of supercoiled form detected.

A. baumannii = assay: Mutation prevention concentration and mutation frequency against A. baumannii; assay type: cell-based
Description: as §7
The mutation prevention concentration and mutation frequencies were determined based on published protocols, the reference of which is provided in Example 4.

Pseudomonas ATCC 27853 = assay: MIC by microbroth dilution, Pseudomonas ATCC 27853; assay type: cell-based; details: ATCC27853, Formula II compounds, read-out: Minimum Inhibitory Concentration (MIC) Pseudomonas ATCC 27853
Description: as §3, §6

E. faecalis ATCC 51299 = assay: MIC by microbroth dilution, E. faecalis ATCC 51299; assay type: cell-based; details: Enterococcus faecalis, ATCC51299, Formula II compounds, read-out: Minimum Inhibitory Concentration (MIC) E. faecalis ATCC 51299
Description: as §3, §6

[11] = led to discontinuation from clinical development; North American Journal of Medical Science, 4, 537-47, 2012; cited from earlier work
hERG [12] = target: T2, hERG; details: BMCL, 21, 7489-7495, 2011; cited from earlier work
[13] = ATCC25922, Formula I compounds, read-out: MIC E. coli (ATCC 25922)
[14] = ATCC33591, Formula I compounds, read-out: MIC Methicillin resistant Staphylococcus aureus (ATCC 33591)
[15] = mouse, in vivo, intravenous, 5 mg/kg b.w., single dose
[16] = mouse, in vivo, oral, 10 mg/kg b.w., single dose

SMILES	MIC (E. coli U1306)	MIC (E. coli U5690)	MIC [1]	MIC (E. coli E1851)	MIC (MRSA E9749)	MIC [2]	MIC [3]	MIC [4]	inhibition at 0.1 µM (E. coli Gyrase)	inhibition at 1 µM (E. coli Gyrase)	MIC (E. coli (ATCC 25922); [13])	MIC [5, 14]	MIC (MRSA E9823)	MIC (E. coli 86)	MIC [6]	IC50 (hERG [7])	also measured
COc1ccc2ncc(=O)n(CCN3CCC(NCc4csc([N+](=O)[O-])c4)CC3)c2c1 [VT-03-00057]	16 µg/mL (≈ 36.1 µM)	8 µg/mL (≈ 18 µM)	0.5 µg/mL (≈ 1.13 µM)	2 µg/mL (≈ 4.51 µM)	0.25 µg/mL (≈ 0.564 µM)	0.12 µg/mL (≈ 0.271 µM)	0.5 µg/mL (≈ 1.13 µM)	2 µg/mL (≈ 4.51 µM)	61.4%	90.6%	2 µg/mL (≈ 4.51 µM)	0.25 µg/mL (≈ 0.564 µM)	0.25 µg/mL (≈ 0.564 µM)	16 µg/mL (≈ 36.1 µM)	> 32 µg/mL	–	–
COc1ccc2ncc(C#N)c(CCN3CCC(NCc4ccc(C)c([N+](=O)[O-])c4)CC3)c2c1 [VT-03-00061]	2 µg/mL (≈ 4.35 µM)	2 µg/mL (≈ 4.35 µM)	0.12 µg/mL (≈ 0.261 µM)	0.5 µg/mL (≈ 1.09 µM)	0.015 µg/mL (≈ 0.0326 µM)	0.015 µg/mL (≈ 0.0326 µM)	0.015 µg/mL (≈ 0.0326 µM)	0.25 µg/mL (≈ 0.544 µM)	99.8%	99.7%	1 µg/mL (≈ 2.18 µM)	0.015 µg/mL (≈ 0.0326 µM)	≤ 0.0075 µg/mL	2 µg/mL (≈ 4.35 µM)	8 µg/mL (≈ 17.4 µM)	> 30 µM	survival [8]: 50%; Mutation prevention concentration (MRSA 33591): 0.12 µg/mL; oral bioavailability (in words) [9]: orally bioavailable; AUC(0-inf) [9, 15]: 368 ng·h/mL; Cmax [9, 15]: 400 ng/mL; half-life [9, 15]: 1.64 h; AUC(0-inf) [9, 16]: 104 ng·h/mL; Cmax [9, 16]: 51.5 ng/mL; half-life [9, 16]: 1.74 h; F % (Oral bioavaialbility) ([9]; oral 10 mg/kg vs intravenous 5 mg/kg): 11.51%
COc1ccc2ncc(=O)n(CCN3CCC(NCc4ccc(C)c([N+](=O)[O-])c4)CC3)c2c1 [VT-03-00062]	–	–	≤ 0.06 µg/mL	–	0.015 µg/mL (≈ 0.0332 µM)	≤ 0.0075 µg/mL	0.015 µg/mL (≈ 0.0332 µM)	0.12 µg/mL (≈ 0.266 µM)	91.5%	98.7%	0.5 µg/mL (≈ 1.11 µM)	0.015 µg/mL (≈ 0.0332 µM)	≤ 0.0075 µg/mL	–	8 µg/mL (≈ 17.7 µM)	–	–
Cc1ccc(CNC2CCN(CCn3c(=O)cnc4ccc(F)cc43)CC2)cc1F [VT-03-00122]	–	–	–	–	–	–	–	–	–	–	–	–	–	–	–	> 30 µM	MIC (Acinetobacter BAA747): 0.25 µg/mL (≈ 0.606 µM); inhibition at 0.1 µM [10]: 95.5%; inhibition at 1 µM [10]: 97.1%; MIC (E. coli (ATCC 25922); ATCC25922, Formula II compounds, read-out: Minimum Inhibitory Concentration (MIC) E. coli ATCC 25922): 0.25 µg/mL (≈ 0.606 µM); Mutation prevention concentration against A. baumannii (A. baumannii): 16 µg/mL; Mutation frequency (A. baumannii; A. baumannii, at 8 μg/ml): 1.10 * 10^−8 at 8 μg/ml; MIC ([5]; Formula II compounds, read-out: Minimum Inhibitory Concentration (MIC) MRSA ATCC 33591): 0.06 µg/mL (≈ 0.145 µM); MIC (Pseudomonas ATCC 27853): 16 µg/mL (≈ 38.8 µM); AUC(0-t) ([9]; mouse, in vivo, iv, 5 mg/kg): 242 ng·h/mL; Cmax ([9]; mouse, in vivo, iv, 5 mg/kg): 381 ng/mL; Tmax ([9]; mouse, in vivo, iv, 5 mg/kg): 0.16 h; half-life ([9]; mouse, in vivo, iv, 5 mg/kg): 0.49 h; bioavailability ([9]; mouse, in vivo, oral 10 mg/kg vs i.v. 5 mg/kg): 7.69%; AUC(0-t) ([9]; mouse, in vivo, oral, 10 mg/kg): 37.3 ng·h/mL; Cmax ([9]; mouse, in vivo, oral, 10 mg/kg): 28.1 ng/mL; Tmax ([9]; mouse, in vivo, oral, 10 mg/kg): 1 h; MIC (E. faecalis ATCC 51299): 0.5 µg/mL (≈ 1.21 µM)
COc1ccc2ncc(F)c([C@@H](O)CC[C@@H]3CCN(CCSc4cccs4)C[C@@H]3C(=O)O)c2c1 [NXL-101]	–	–	–	–	–	–	–	–	–	–	–	–	–	–	–	–	QT prolongation (in words) [11]: causes QT prolongation
COc1ccc2ncc(C#N)c(CCN3CCC(NCc4cc5c(cn4)OCS5)CC3)c2c1 [GSK299423]	–	–	–	–	–	–	–	–	–	–	–	–	–	–	–	–	hERG binding liability (in words) (hERG [12]): serious hERG binding liability
